Several values for one entry are separate records, joined by “and”; a condition that tells them apart may be missing. Identical values can stand only once.
Tested on: 997726-040-R-J2-PDC tumor spheroids, viability
Test: Anticancer human tumor 997726-040-R-J2-PDC patient-derived squamous cell lung carcinoma cell line growth inhibition [PI3K]
Details: spheroids with HUVEC and MSC; for viability, T/C: stronger effect = lower value
Outline: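 Multi-cell spheroids combine tumor cells with HUVEC and human MSCs, treated with targeted agents alone or with inavolisib, alpelisib, duvelisib or copanlisib. Concentrations fall in half-log steps from at or near clinical Cmax, or from 10 microM where Cmax is unknown; viability read-out.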
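Note: spheroids exposed to compounds for seven days before readout.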

## Cn1cnc2c(F)c(Nc3ccc(Br)cc3Cl)c(C(=O)NOCCO)cc21 + CC(Nc1ncnc2nc[nH]c12)c1cc2cccc(Cl)c2c(=O)n1-c1ccccc1
Curve of first compound, second compound 0.0316 µM
  IC50: 553 nM
Curve of first compound, second compound 0.1 µM
  IC50: 467 nM
Curve of first compound, second compound 0.316 µM
  IC50: 319 nM
Curve of first compound, second compound 1 µM
  IC50: 574 nM
Curve of first compound, second compound 3.16 µM
  IC50: 60.1 nM
Curve of first compound, second compound 10 µM
  IC50: < 9.49 nM
Second compound 0.0316 µM, first compound 0.00949 µM
  viability, T/C: 66.7%
Second compound 0.0316 µM, first compound 0.03 µM
  viability, T/C: 64.8%
Second compound 0.0316 µM, first compound 0.0949 µM
  viability, T/C: 55.7%
Second compound 0.0316 µM, first compound 0.3 µM
  viability, T/C: 54.2%
Second compound 0.0316 µM, first compound 0.949 µM
  viability, T/C: 45.7%
Second compound 0.0316 µM, first compound 3 µM
  viability, T/C: 44.4%
Second compound 0.1 µM, first compound 0.00949 µM
  viability, T/C: 84.3%
Second compound 0.1 µM, first compound 0.03 µM
  viability, T/C: 68.9%
Second compound 0.1 µM, first compound 0.0949 µM
  viability, T/C: 55.1%
Second compound 0.1 µM, first compound 0.3 µM
  viability, T/C: 54.9%
Second compound 0.1 µM, first compound 0.949 µM
  viability, T/C: 49.8%
Second compound 0.1 µM, first compound 3 µM
  viability, T/C: 41.5%
Second compound 0.316 µM, first compound 0.00949 µM
  viability, T/C: 71.5%
Second compound 0.316 µM, first compound 0.03 µM
  viability, T/C: 62.2%
Second compound 0.316 µM, first compound 0.0949 µM
  viability, T/C: 54.1%
Second compound 0.316 µM, first compound 0.3 µM
  viability, T/C: 51.1%
Second compound 0.316 µM, first compound 0.949 µM
  viability, T/C: 49.1%
Second compound 0.316 µM, first compound 3 µM
  viability, T/C: 40.5%
Second compound 1 µM, first compound 0.00949 µM
  viability, T/C: 72%
Second compound 1 µM, first compound 0.03 µM
  viability, T/C: 70.1%
Second compound 1 µM, first compound 0.0949 µM
  viability, T/C: 51.5%
Second compound 1 µM, first compound 0.3 µM
  viability, T/C: 55.8%
Second compound 1 µM, first compound 0.949 µM
  viability, T/C: 49.9%
Second compound 1 µM, first compound 3 µM
  viability, T/C: 42.4%
Second compound 3.16 µM, first compound 0.00949 µM
  viability, T/C: 56.8%
Second compound 3.16 µM, first compound 0.03 µM
  viability, T/C: 56%
Second compound 3.16 µM, first compound 0.0949 µM
  viability, T/C: 46.3%
Second compound 3.16 µM, first compound 0.3 µM
  viability, T/C: 42.4%
Second compound 3.16 µM, first compound 0.949 µM
  viability, T/C: 40.7%
Second compound 3.16 µM, first compound 3 µM
  viability, T/C: 35.2%
Second compound 10 µM, first compound 0.00949 µM
  viability, T/C: 46.1%
Second compound 10 µM, first compound 0.03 µM
  viability, T/C: 38.5%
Second compound 10 µM, first compound 0.0949 µM
  viability, T/C: 32.6%
Second compound 10 µM, first compound 0.3 µM
  viability, T/C: 30.7%
Second compound 10 µM, first compound 0.949 µM
  viability, T/C: 32.6%
Second compound 10 µM, first compound 3 µM
  viability, T/C: 24.7%

## C=CC(=O)N1CCN(c2nc(=O)n(-c3c(C)ccnc3C(C)C)c3nc(-c4c(O)cccc4F)c(F)cc23)C(C)C1 (stereo unspecified)
Compound 0.0316 µM
  viability, T/C: 105% [middle of 4 runs]
Compound 0.1 µM
  viability, T/C: 91.2% and 100% (2×) and 96.7%
Compound 0.316 µM
  viability, T/C: 109% [middle of 4 runs]
Compound 1 µM
  viability, T/C: 109% [middle of 4 runs]
Compound 3.16 µM
  viability, T/C: 126% [middle of 4 runs]
Compound 10 µM
  viability, T/C: 122% [middle of 4 runs]
Curve of compound
  IC50: > 10000 nM

## CC1(C)CCC(CN2CCN(c3ccc(C(=O)NS(=O)(=O)c4ccc(NCC5CCOCC5)c([N+](=O)[O-])c4)c(Oc4cnc5[nH]ccc5c4)c3)CC2)=C(c2ccc(Cl)cc2)C1
Compound 0.0316 µM
  viability, T/C: 98.4% [middle of 4 runs]
Compound 0.1 µM
  viability, T/C: 95.7% [middle of 4 runs]
Compound 1 µM
  viability, T/C: 102% [middle of 4 runs]
Compound 3.16 µM
  viability, T/C: 98.8% [middle of 4 runs]
Compound 10 µM
  viability, T/C: 42.4% [middle of 4 runs]
Curve of compound
  IC50: 8.5 µM [middle of 4 runs]

## C[C@@H](NC(=O)c1ncnc(N)c1Cl)c1ncc(C(=O)Nc2cc(C(F)(F)F)c(Cl)cn2)s1
Compound 0.1 µM
  viability, T/C: 125% [middle of 4 runs]
Compound 0.316 µM
  viability, T/C: 117% [middle of 4 runs]
Compound 1 µM
  viability, T/C: 110% [middle of 4 runs]
Compound 3.16 µM
  viability, T/C: 105% [middle of 4 runs]
Compound 10 µM
  viability, T/C: 73.3% [middle of 4 runs]
Curve of compound
  IC50: > 10000 nM

Source: PubChem BioAssay AID1963964 (Molecular Pharmacology Branch, DTP, NCI, 2024)
